In US12636270B2, “Levothyroxine liquid formulations” (Fresenius Kabi USA, LLC, priority 2016, dated 2026):
Where two headings read alike, the source gives them in different places.

Assays:
[1] = tromethamine 10 mg/mL, normal saline
Procedure: (§1) The HPLC conditions were as follows: • Column: Waters […]™ C8 (5 μm, 4.6×150 mm) HPLC column • Mobile Phase A: Sodium heptanesulfonate/Acetonitrile/Water/Methanol/H3PO4 (4.023 g/800 mL/1600 mL/1600 mL/4 mL) • Mobile Phase B: Sodium heptanesulfonate/Acetonitrile/Water/Methanol/H3PO4 (2.013 g/1000 mL/100 mL/900 mL/2 mL) • Diluent: 0.01 N NaOH • Column temperature: 25° C. • Flow rate: 1.5 mL/min • Injection volume: 40-200 μL • Autosampler temperature: 5° C. • Detection: UV at 225 nm • Separation mode: Gradient Gradient Program:
The effect of pH on levothyroxine stability was further tested in samples having a pH 9.5-11.5. Separate samples containing levothyroxine sodium at a concentration of 20 mcg/mL or 100 mcg/mL, tromethamine at a concentration of 10 mg/mL in normal saline were adjusted to various pH levels. 5 mL of each sample was filled into 10 cc amber tubing vials, and the vials were stoppered with 20 mm stoppers under nitrogen. The samples were stored at temperatures of 25° C., 40° C., and 55° C. The samples stored at 55° C. were analyzed by HPLC at 1 W and 2 W of storage. The samples stored at 25° C. and 40° C. were analyzed by HPLC at 2M of storage using the HPLC conditions described hereinabove.

[2] = 55° C., 1 W, 20 mcg/mL, glycerol 100 mg/mL, normal saline
Procedure: as §1
Separate samples containing levothyroxine sodium at a concentration of 20 mcg/mL and glycerol at a concentration of 100 mg/mL in normal saline were adjusted to pH levels of 7, 8, and 9. 5 mL of each sample was filled into 10 cc amber tubing vials, and the vials were stoppered with 20 mm stoppers under nitrogen. The samples were stored at a temperature of 55° C. The samples were analyzed by HPLC at 1 week of storage using the HPLC conditions described in Example 1. The results for liothyronine, largest unknown impurity, and total impurities as determined by peak area percent are set forth in Table 7.

[3] = 4 W, 20 mcg/mL, tromethamine 10 mg/mL, 5.4 mg/mL sodium chloride in water
Procedure: Separate samples containing 20 mcg/mL levothyroxine sodium, 10 mg/mL tromethamine, 5.4 mg/mL sodium chloride, and sodium iodide at a concentration of 280 mcg/mL, 140 mcg/mL, or 6 mcg/mL in water were adjusted to various pH levels. 5 mL of each sample was filled into 10 cc flint molded vials, and the vials were stoppered with 20 mm stoppers under nitrogen.
The HPLC conditions were as follows: • Column: ACE Excel 3 C18-PFP, 4.6×150 mm HPLC column • Mobile Phase A: Sodium heptanesulfonate/Acetonitrile/Water/Methanol/H3PO4 (4.0 g/800 mL/1600 mL/1600 mL/4.0 mL) • Mobile Phase B: Sodium heptanesulfonate/Acetonitrile/Water/Methanol/H3PO4 (4.0 g/2000 mL/200 mL/1800 mL/4.0 mL) • Diluent: 0.01 N NaOH • Column temperature: 25° C. • Flow rate: 1.5 mL/min • Injection volume: 80 μL • Autosampler temperature: 5° C. • Detection: UV at 225 nm • Separation mode: Gradient Gradient Program: […]

[4] = 25° C., 2 M, pH 10.4, 20 mcg/mL
[5] = 25° C., 2 M, pH 10.4, 100 mcg/mL
[6] = 25° C., 2 M, pH 11.5, 20 mcg/mL
[7] = 40° C., 2 M, pH 10.4, 20 mcg/mL
[8] = 40° C., 2 M, pH 10.4, 100 mcg/mL
[9] = 40° C., 2 M, pH 11.5, 20 mcg/mL
[10] = 55° C., 1 W, pH 10.4, 20 mcg/mL
[11] = 55° C., 1 W, pH 10.4, 100 mcg/mL
[12] = 55° C., 1 W, pH 11.5, 20 mcg/mL
[13] = 55° C., 2 W, pH 10.4, 20 mcg/mL
[14] = 55° C., 2 W, pH 10.4, 100 mcg/mL
[15] = 55° C., 2 W, pH 11.5, 20 mcg/mL
[16] = 25° C., NaI 140 mcg/mL, pH 10.5
[17] = 25° C., NaI 280 mcg/mL, pH 10.5
[18] = 55° C., NaI 140 mcg/mL, pH 10.5
[19] = 55° C., NaI 280 mcg/mL, pH 10.5

**Q.** For N[C@@H](Cc1cc(I)c(Oc2cc(I)c(O)c(I)c2)c(I)c1)C(=O)[O-].[Na+] [Levothyroxine Na, 4-(4-hydroxy-3,5-diiodophenoxy)-3,5-diiodo-L-phenylalanine sodium], which “% Liothyronine” value ([1]; 25° C., 2 M, pH 9.5, 20 mcg/mL) is on record?
**A.** 0.34%

**Q.** And the “% largest unknown impurity” value ([1]; 25° C., 2 M, pH 9.5, 20 mcg/mL)?
**A.** 0.11%

**Q.** What about the “% total impurities” value ([1]; 25° C., 2 M, pH 9.5, 20 mcg/mL) of the same compound?
**A.** 0.7%

**Q.** And the “% Liothyronine” value [1, 4]?
**A.** 0.17%

**Q.** What about the “% largest unknown impurity” value [1, 4] of the same compound?
**A.** 0.20%

**Q.** And the “% total impurities” value [1, 4]?
**A.** 0.6%

**Q.** What about the “% Liothyronine” value [1, 5] of the same compound?
**A.** 0.23%

**Q.** And the “% largest unknown impurity” value [1, 5]?
**A.** 0.11%

**Q.** What about the “% total impurities” value [1, 5] of the same compound?
**A.** 0.6%

**Q.** What about the “% Liothyronine” value [1, 6] of the same compound?
**A.** 0.34%

**Q.** And the “% largest unknown impurity” value [1, 6]?
**A.** 15.4%

**Q.** And the “% total impurities” value [1, 6]?
**A.** 19.6%

**Q.** What about the “% Liothyronine” value ([1]; 40° C., 2 M, pH 9.5, 20 mcg/mL) of the same compound?
**A.** 1.00%

**Q.** What about the “% largest unknown impurity” value ([1]; 40° C., 2 M, pH 9.5, 20 mcg/mL) of the same compound?
**A.** 0.14%

**Q.** And the “% total impurities” value ([1]; 40° C., 2 M, pH 9.5, 20 mcg/mL)?
**A.** 1.44%

**Q.** And the “% Liothyronine” value [1, 7]?
**A.** 0.38%

**Q.** And the “% largest unknown impurity” value [1, 7]?
**A.** 0.22%

**Q.** What about the “% total impurities” value [1, 7] of the same compound?
**A.** 0.88%

**Q.** What about the “% Liothyronine” value [1, 8] of the same compound?
**A.** 0.49%

**Q.** What about the “% largest unknown impurity” value [1, 8] of the same compound?
**A.** 0.10%

**Q.** What about the “% total impurities” value [1, 8] of the same compound?
**A.** 0.8%

**Q.** What about the “% Liothyronine” value [1, 9] of the same compound?
**A.** 0.31%

**Q.** And the “% largest unknown impurity” value [1, 9]?
**A.** 9.2%

**Q.** What about the “% total impurities” value [1, 9] of the same compound?
**A.** 12.1%

**Q.** And the “% Liothyronine” value ([1]; 55° C., 1 W, pH 9.5, 20 mcg/mL)?
**A.** 0.9%

**Q.** What about the “% largest unknown impurity” value ([1]; 55° C., 1 W, pH 9.5, 20 mcg/mL) of the same compound?
**A.** 0.09%

**Q.** And the “% total impurities” value ([1]; 55° C., 1 W, pH 9.5, 20 mcg/mL)?
**A.** 1.2%

**Q.** And the “% Liothyronine” value [1, 10]?
**A.** 0.2%

**Q.** What about the “% largest unknown impurity” value [1, 10] of the same compound?
**A.** 0.09%

**Q.** And the “% total impurities” value [1, 10]?
**A.** 0.5%

**Q.** And the “% Liothyronine” value [1, 11]?
**A.** 0.3%

**Q.** What about the “% largest unknown impurity” value [1, 11] of the same compound?
**A.** 0.11%

**Q.** And the “% total impurities” value [1, 11]?
**A.** 0.7%

**Q.** What about the “% Liothyronine” value [1, 12] of the same compound?
**A.** 0.1%

**Q.** What about the “% largest unknown impurity” value [1, 12] of the same compound?
**A.** 0.08%

**Q.** What about the “% total impurities” value [1, 12] of the same compound?
**A.** 0.4%

**Q.** And the “% Liothyronine” value ([1]; 55° C., 2 W, pH 9.5, 20 mcg/mL)?
**A.** 1.9%

**Q.** And the “% largest unknown impurity” value ([1]; 55° C., 2 W, pH 9.5, 20 mcg/mL)?
**A.** 0.1%

**Q.** What about the “% total impurities” value ([1]; 55° C., 2 W, pH 9.5, 20 mcg/mL) of the same compound?
**A.** 2.0%

**Q.** And the “% Liothyronine” value [1, 13]?
**A.** 0.4%

**Q.** And the “% largest unknown impurity” value [1, 13]?
**A.** 0.1%

**Q.** What about the “% total impurities” value [1, 13] of the same compound?
**A.** 0.9%

**Q.** And the “% Liothyronine” value [1, 14]?
**A.** 0.8%

**Q.** And the “% largest unknown impurity” value [1, 14]?
**A.** 0.11%

**Q.** And the “% total impurities” value [1, 14]?
**A.** 1.1%

**Q.** And the “% Liothyronine” value [1, 15]?
**A.** 0.2%

**Q.** What about the “% largest unknown impurity” value [1, 15] of the same compound?
**A.** 0.1%

**Q.** And the “% total impurities” value [1, 15]?
**A.** 0.4%

**Q.** What about the “% Liothyronine” value ([2]; pH 7) of the same compound?
**A.** 3.6%

**Q.** And the “% largest unknown impurity” value ([2]; pH 7)?
**A.** 1.16%

**Q.** What about the “% total impurities” value ([2]; pH 7) of the same compound?
**A.** 5.3%

**Q.** And the “% Liothyronine” value ([2]; pH 8)?
**A.** 3.4%

**Q.** What about the “% largest unknown impurity” value ([2]; pH 8) of the same compound?
**A.** 1.30%

**Q.** And the “% total impurities” value ([2]; pH 8)?
**A.** 5.4%

**Q.** And the “% Liothyronine” value ([2]; pH 9)?
**A.** 2.4%

**Q.** What about the “% largest unknown impurity” value ([2]; pH 9) of the same compound?
**A.** 0.82%

**Q.** And the “% total impurities” value ([2]; pH 9)?
**A.** 3.8%

**Q.** And the “% AOII” value ([3]; 25° C., NaI 6 mcg/mL, pH 10.5)?
**A.** 0.33%

**Q.** What about the “% total impurities” value ([3]; 25° C., NaI 6 mcg/mL, pH 10.5) of the same compound?
**A.** 1.9%

**Q.** And the “% AOII” value ([3]; 25° C., NaI 140 mcg/mL, pH 9.5)?
**A.** 0.52%

**Q.** What about the “% total impurities” value ([3]; 25° C., NaI 140 mcg/mL, pH 9.5) of the same compound?
**A.** 1.51%

**Q.** What about the “% AOII” value ([3]; 25° C., NaI 140 mcg/mL, pH 10) of the same compound?
**A.** 0.55%

**Q.** And the “% total impurities” value ([3]; 25° C., NaI 140 mcg/mL, pH 10)?
**A.** 1.64%

**Q.** What about the “% AOII” value [3, 16] of the same compound?
**A.** 0.6%

**Q.** What about the “% total impurities” value [3, 16] of the same compound?
**A.** 1.75%

**Q.** What about the “% AOII” value ([3]; 25° C., NaI 280 mcg/mL, pH 9.5) of the same compound?
**A.** 0.56%

**Q.** What about the “% total impurities” value ([3]; 25° C., NaI 280 mcg/mL, pH 9.5) of the same compound?
**A.** 1.58%

**Q.** What about the “% AOII” value ([3]; 25° C., NaI 280 mcg/mL, pH 10) of the same compound?
**A.** 0.55%

**Q.** What about the “% total impurities” value ([3]; 25° C., NaI 280 mcg/mL, pH 10) of the same compound?
**A.** 1.61%

**Q.** What about the “% AOII” value [3, 17] of the same compound?
**A.** 0.57%

**Q.** And the “% total impurities” value [3, 17]?
**A.** 1.66%

**Q.** What about the “% AOII” value ([3]; 55° C., NaI 6 mcg/mL, pH 10.5) of the same compound?
**A.** 0.99%

**Q.** What about the “% total impurities” value ([3]; 55° C., NaI 6 mcg/mL, pH 10.5) of the same compound?
**A.** 3.5%

**Q.** And the “% AOII” value ([3]; 55° C., NaI 140 mcg/mL, pH 9.5)?
**A.** 0.59%

**Q.** What about the “% total impurities” value ([3]; 55° C., NaI 140 mcg/mL, pH 9.5) of the same compound?
**A.** 3.6%

**Q.** What about the “% AOII” value ([3]; 55° C., NaI 140 mcg/mL, pH 10) of the same compound?
**A.** 0.61%

**Q.** And the “% total impurities” value ([3]; 55° C., NaI 140 mcg/mL, pH 10)?
**A.** 2.86%

**Q.** And the “% AOII” value [3, 18]?
**A.** 0.53%

**Q.** And the “% total impurities” value [3, 18]?
**A.** 2.49%

**Q.** And the “% AOII” value ([3]; 55° C., NaI 280 mcg/mL, pH 9.5)?
**A.** 0.53%

**Q.** What about the “% total impurities” value ([3]; 55° C., NaI 280 mcg/mL, pH 9.5) of the same compound?
**A.** 3.24%

**Q.** What about the “% AOII” value ([3]; 55° C., NaI 280 mcg/mL, pH 10) of the same compound?
**A.** 0.54%

**Q.** What about the “% total impurities” value ([3]; 55° C., NaI 280 mcg/mL, pH 10) of the same compound?
**A.** 2.76%

**Q.** What about the “% AOII” value [3, 19] of the same compound?
**A.** 0.53%

**Q.** And the “% total impurities” value [3, 19]?
**A.** 2.43%
